According to patent US10017765B2, “Inhibitors of CACNA1A/ALPHA1A subunit internal ribosomal entry site (IRES) and methods of treating spinocerebellar ataxia type 6” (THE UNIVERSITY OF CHICAGO, priority 2013, dated 2018):
Entries after “also recorded” stand apart in the source; their conditions may differ.

Key:
[1] = test system: PC12 cells; test: NGF-induced neurite outgrowth of transfected PC12 cells; type: cell-based, rat; settings: NGF treatment
[2] = test system: CACNA1 A IRES pRCTF; test: Preliminary screening, pRCTF R-Luc/F-Luc bicistronic reporter in HEK293 cells; type: cell-based, human

Compound | α1AWT-induced neurite outgrowth ([1]; PC12 cells expressing full-length α1AWT-FLAG) | α1ACTWT-induced (enhanced) neurite outgrowth ([1]; PC12 cells transfected with α1ACTWT-FLAG) | activity of CACNA1A IRES pRCTF [2]
ω-agatoxin | could not be blocked; also recorded: did not block | no effect | –
COc1ccc(C[C@H]2NC[C@H](O)[C@H]2OC(C)=O)cc1 [anisomycin] | – | – | has the potential to inhibit
